Measurements: article PMC7051184, “C9orf72 arginine-rich dipeptide repeat proteins disrupt karyopherin-mediated nuclear import” (eLife, 2020)

What was measured:
Type in all cases: biochemical, human
transportin-1 (Tnpo1) = experiment: DPR aggregation assay and western blot, Tnpo1; settings: Fig 5-suppl 3C, normalized to untreated HEK on same membrane;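 further: RNA rows contain added 20 µg total HEK RNA while no-RNA rows lack it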
Protocol: (§1) Supernatant and pellet fractions (for all 5 DPRs, and control/buffer only) were prepared as in the nuclear transport assays, by adding 100 µM 10mers to 2.5 mg/ml HEK lysate in 100 µL TRB. Supernatants were boiled in Laemmli (BioRad) for 5 min. Pellets were boiled for 15 min followed by sonication in order to fully disperse aggregates for SDS-PAGE. Equal volumes of supernatant and pellet fractions were run on 4–12% Bolt Bis-Tris Plus gels (ThermoFisher), transferred to nitrocellulose membrane using an iBlot2 dry blotting system (ThermoFisher). Protein loading was analyzed by BLOT-Faststain (G-biosciences, St. Louis, MO), according to the manufacterers’ instructions. For immunodetection, membranes were blocked with 5% non-fat milk in TBST and probed by sequential incubation with the primary antibodies as detailed in the table below. Detection was by HRP-conjugated secondary antibodies/chemiluminescence using an ImageQuant LAS 4000 system (GE, Chicago, IL). To permit sequential probing of membranes without stripping, signals were quenched by incubation with prewarmed 30% H20_2 for 20 min ([Sennepin et al., 2009]). Band intensities were measured by ImageQuant software. For pellet vs. supernatant fractions, all were expressed as percent untreated control. For blots in Figure 1E, samples were run on 4–20% SDS PAGE minigels (ThermoFisher) and blotted to PVDF membranes (Immun-Blot PVDF, Bio-Rad) using the Bio-Rad TransBlot Turbo apparatus, and probed as above. The chemiluminescence signal was captured with a Bio-Rad ChemiDoc XRS+ digital imaging system.

importin β = experiment: DPR aggregation assay and western blot, ImpB; settings: Fig 5-suppl 3C, normalized to untreated HEK on same membrane;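 further: RNA rows contain added 20 µg total HEK RNA while no-RNA rows lack it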
Protocol: as §1

importin α = experiment: DPR aggregation assay and western blot, ImpA; settings: Fig 5-suppl 3C, normalized to untreated HEK on same membrane;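 further: RNA rows contain added 20 µg total HEK RNA while no-RNA rows lack it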
Protocol: as §1

RanGAP1 = experiment: DPR aggregation assay and western blot, RanGAP1; settings: Fig 5-suppl 3C, normalized to untreated HEK on same membrane
Protocol: as §1

TDP-43 = experiment: DPR aggregation assay and western blot, TDP-43; settings: Fig 5-suppl 3C, normalized to untreated HEK on same membrane
Protocol: as §1

[1] = DPR aggregate formation in HEK lysate (pellet vs. supernatant, total protein); settings: transport assay lysate
Protocol: as §1, with “For blots in Figure 1E, samples were run on 4–20% SDS PAGE minigels (ThermoFisher) and blotted to PVDF membranes (Immun-Blot PVDF, Bio-Rad) using the Bio-Rad TransBlot Turbo apparatus, and probed as above. The chemiluminescence signal was captured with a Bio-Rad ChemiDoc XRS+ digital imaging system.” left out

Rps25 = experiment: DPR aggregation assay and western blot, Rps25; settings: Fig 5-suppl 3C, normalized to untreated HEK on same membrane;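 further: RNA rows contain added 20 µg total HEK RNA while no-RNA rows lack it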
Description: Supplement elife-51685-fig5-data1.xlsx, sheet "Figure 5-figure suppl 3" | column: Rps25

[2] = Pellet, no RNA (Untreated), blot 1
[3] = Pellet, no RNA (Untreated), blot 2
[4] = Supernatant, no RNA (Untreated), blot 1
[5] = Supernatant, no RNA (Untreated), blot 2

GA10: Synthetic 10-mer GA dipeptide repeat with C-terminal lysine and cysteine (GAGAGAGAGAGAGAGAGAGAKC)
TNPO1 band density, % untr control (transportin-1 (Tnpo1); Pellet, RNA, blot 1): 84.30%
TNPO1 band density, % untr control (transportin-1 (Tnpo1); Pellet, RNA, blot 2): 68.79%
TNPO1 band density, % untr control (transportin-1 (Tnpo1); [2]): 107.97%
TNPO1 band density, % untr control (transportin-1 (Tnpo1); [3]): 107.46%
TNPO1 band density, % untr control (transportin-1 (Tnpo1); Supernatant, RNA, blot 1): 64.64%
TNPO1 band density, % untr control (transportin-1 (Tnpo1); Supernatant, RNA, blot 2): 100.29%
TNPO1 band density, % untr control (transportin-1 (Tnpo1); [4]): 66.29%
TNPO1 band density, % untr control (transportin-1 (Tnpo1); [5]): 92.01%
ImpB band density, % untr control (importin β; Pellet, RNA, blot 1): 90.07%
ImpB band density, % untr control (importin β; Pellet, RNA, blot 2): 91.42%
ImpB band density, % untr control (importin β; [2]): 90.15%
ImpB band density, % untr control (importin β; [3]): 102.12%
ImpB band density, % untr control (importin β; Supernatant, RNA, blot 1): 78.71%
ImpB band density, % untr control (importin β; Supernatant, RNA, blot 2): 123.36%
ImpB band density, % untr control (importin β; [4]): 89.10%
ImpB band density, % untr control (importin β; [5]): 114.58%
ImpA band density, % untr control (importin α; Pellet, RNA, blot 1): 93.99%
ImpA band density, % untr control (importin α; Pellet, RNA, blot 2): 102.25%
ImpA band density, % untr control (importin α; [2]): 106.73%
ImpA band density, % untr control (importin α; [3]): 98.70%
ImpA band density, % untr control (importin α; Supernatant, RNA, blot 1): 83.82%
ImpA band density, % untr control (importin α; Supernatant, RNA, blot 2): 115.58%
ImpA band density, % untr control (importin α; [4]): 82.83%
ImpA band density, % untr control (importin α; [5]): 108.20%
RanGAP1 band density, % untr control (RanGAP1; Pellet, RNA, blot 1): 93.93%
RanGAP1 band density, % untr control (RanGAP1; Pellet, RNA, blot 2): 89.10%
RanGAP1 band density, % untr control (RanGAP1; [2]): 87.31%
RanGAP1 band density, % untr control (RanGAP1; [3]): 80.44%
RanGAP1 band density, % untr control (RanGAP1; Supernatant, RNA, blot 1): 83.26%
RanGAP1 band density, % untr control (RanGAP1; Supernatant, RNA, blot 2): 119.18%
RanGAP1 band density, % untr control (RanGAP1; [4]): 131.44%
RanGAP1 band density, % untr control (RanGAP1; [5]): 105.30%
TDP43 band density, % untr control (TDP-43; Pellet, RNA, blot 1): 112.48%
TDP43 band density, % untr control (TDP-43; Pellet, RNA, blot 2): 99.51%
TDP43 band density, % untr control (TDP-43; [2]): 116.61%
TDP43 band density, % untr control (TDP-43; [3]): 120.53%
TDP43 band density, % untr control (TDP-43; Supernatant, RNA, blot 1): 88.02%
TDP43 band density, % untr control (TDP-43; Supernatant, RNA, blot 2): 100.78%
TDP43 band density, % untr control (TDP-43; [4]): 86.33%
TDP43 band density, % untr control (TDP-43; [5]): 98.73%
Aggregate formation in cell lysate [1]: did not observe GA-induced aggregate formation
Rps25 band density, % untr control (Rps25; Pellet, RNA, blot 1): 48.52%
Rps25 band density, % untr control (Rps25; Pellet, RNA, blot 2): 61.57%
Rps25 band density, % untr control (Rps25; [2]): 84.83%
Rps25 band density, % untr control (Rps25; [3]): 128.35%
Rps25 band density, % untr control (Rps25; Supernatant, RNA, blot 1): 121.04%
Rps25 band density, % untr control (Rps25; Supernatant, RNA, blot 2): 82.85%
Rps25 band density, % untr control (Rps25; [4]): 112.04%
Rps25 band density, % untr control (Rps25; [5]): 76.84%
